From patent US11109593B2, “Isoxazolin-5-one derivative and herbicide containing same as active ingredient” (HOKKO CHEMICAL INDUSTRY CO., LTD., priority 2017, dated 2021)

Legend:
Format in all cases: in vivo
Chenopodium album [1] = assay: Test Example 3: herbicidal effect test by treatment of dry field farming soil (one day after seeding); settings: 120 g/10a active ingredient, evaluated 14 days after treatment
Outline: (§1)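 Weeds were seeded into the upper soil layer of alluvial field soil and, one day afterwards, the soil surface was sprayed with water-diluted emulsion delivering 120 g active ingredient per 10 ares. Mean plant dry weight relative to untreated pots after 14 days gave the herbicidal rate, tested in duplicate.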

Amaranthus viridis [2] = assay: as above; settings: 120 g/10a active ingredient, evaluated 14 days after treatment
Outline: as §1

southern crabgrass [3] = assay: as above; settings: 120 g/10a active ingredient, evaluated 14 days after treatment
Outline: as §1

Echinochloa crus-galli [4] = assay: as above; settings: 120 g/10a active ingredient, evaluated 14 days after treatment
Outline: as §1

[5] = test system: broad leaf weeds (Lindernia pyxidaria and Monochoria vaginalis); assay: Test Example 2: herbicidal effect test by treatment during growing period in paddy rice cultivation (seven days after seeding); settings: 120 g/10a active ingredient, assessed 14 days after treatment, dry weight vs untreated area
Outline: (§2)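 Sow 30 seeds per species (0–1 cm) into puddled, fertilized paddy soil; keep flooded ~3 cm in greenhouse. Day 7 after seeding: drop water-diluted emulsion, 120 g a.i./10 ares. Harvest 14 d post-treatment; compare dry weight with untreated pots (duplicate).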

Scirpus juncoides [6] = assay: as above; settings: 120 g/10a active ingredient, assessed 14 days after treatment, dry weight vs untreated area
Outline: as §2

Echinochloa crus-galli [7] = assay: as above; settings: 120 g/10a active ingredient, assessed 14 days after treatment, dry weight vs untreated area
Outline: as §2

Chenopodium album [8] = assay: Test Example 4: herbicidal effect test by treatment of leave and stem in dry field farming (seven days after seeding); settings: 120 g/10a active ingredient; emulsion sprayed seven days after seeding; evaluated 14 days after treatment
Outline: (§3)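 Duplicate pots were scored 14 days post-spray by dry weight, herbicidal rate = {1 − treated/untreated average dry weight} × 100. The water-diluted emulsion, equivalent to 120 g active ingredient per 10 ares in 100 L, was applied seven days after sowing 20 seeds each into the upper 1 cm of alluvial soil.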

Amaranthus viridis [9] = assay: as above; settings: 120 g/10a active ingredient; emulsion sprayed seven days after seeding; evaluated 14 days after treatment
Outline: as §3

southern crabgrass [10] = assay: as above; settings: 120 g/10a active ingredient; emulsion sprayed seven days after seeding; evaluated 14 days after treatment
Outline: as §3

Echinochloa crus-galli [11] = assay: as above; settings: 120 g/10a active ingredient; emulsion sprayed seven days after seeding; evaluated 14 days after treatment
Outline: as §3

[12] = test system: broad leaf weeds (Lindernia pyxidaria and Monochoria vaginalis); assay: Test Example 1: herbicidal effect test by treatment of rice paddy soil (immediately after seeding); settings: 120 g/10a active ingredient, dry weight vs untreated area, 14 days after treatment
Outline: (§4)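 Application occurs immediately after seeding, with diluted emulsion added to paddy water (about 3 cm deep) over puddled, fertilized soil at 120 g active ingredient per 10 ares. Herbicidal rate is calculated from mean dry weight against untreated controls 14 days later.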

Scirpus juncoides [13] = assay: as above; settings: 120 g/10a active ingredient, dry weight vs untreated area, 14 days after treatment
Outline: as §4

Echinochloa crus-galli [14] = assay: as above; settings: 120 g/10a active ingredient, dry weight vs untreated area, 14 days after treatment
Outline: as §4

SMILES	herbicidal rate, Chenopodium album (Chenopodium album [1]) [%]	herbicidal rate, Amaranthus viridis (Amaranthus viridis [2]) [%]	herbicidal rate, southern crabgrass (southern crabgrass [3]) [%]	herbicidal rate, Echinochloa crus-galli (Echinochloa crus-galli [4]) [%]	Herbicidal rate (%) Lindernia pyxidaria [5] [%]	Herbicidal rate (%) Monochoria vaginalis [5] [%]	Herbicidal rate (%) Scirpus juncoides (Scirpus juncoides [6]) [%]	Herbicidal rate (%) Echinochloa crus-galli (Echinochloa crus-galli [7]) [%]	herbicidal effect (herbicidal rate), Chenopodium album (Chenopodium album [8]) [%]	herbicidal effect (herbicidal rate), Amaranthus viridis (Amaranthus viridis [9]) [%]	herbicidal effect (herbicidal rate), southern crabgrass (southern crabgrass [10]) [%]	herbicidal effect (herbicidal rate), Echinochloa crus-galli (Echinochloa crus-galli [11]) [%]	Herbicidal rate (%) Lindernia pyxidaria [12] [%]	Herbicidal rate (%) Monochoria vaginalis [12] [%]	Herbicidal rate (%) Scirpus juncoides (Scirpus juncoides [13]) [%]	Herbicidal rate (%) Echinochloa crus-galli (Echinochloa crus-galli [14]) [%]
Cc1c(Cc2ccccc2NS(=O)(=O)C(F)(F)F)c(=O)on1CC(C)c1ccccc1 (stereo not shown) [Compound 1-219]	40	90	80	90	40	70	90	90	0	40	60	90	90	80	90	100
Cc1c(Cc2ccccc2NS(=O)(=O)C(F)(F)F)c(=O)on1C1CCc2ccccc21 (stereo not shown) [Compound 1-222]	100	100	100	100	90	90	90	90	50	40	80	70	90	90	90	100
Cc1c(Cc2ccccc2NS(=O)(=O)C(F)(F)F)c(=O)on1CC1CCCO1 (stereo not shown) [Compound 1-230]	60	60	100	100	70	90	90	90	40	40	80	80	100	80	90	100
CCN(CC)C(=O)n1oc(=O)c(Cc2ccccc2NS(=O)(=O)C(F)(F)F)c1C [Compound 1-248]	60	50	80	70	90	90	90	40	0	40	40	80	90	80	50	60
CC(=O)N(c1ccccc1Cc1c(C)n(C(C)(C)C)oc1=O)S(=O)(=O)C(F)(F)F [Compound 1-293]	90	90	90	90	90	90	90	90	40	40	90	90	90	90	90	90
CCC(C)n1oc(=O)c(Cc2ccccc2N(C(C)=O)S(=O)(=O)C(F)(F)F)c1C (stereo not shown) [Compound 1-294]	90	90	90	90	90	90	90	90	40	40	90	90	90	90	90	90
CCC(CC)n1oc(=O)c(Cc2ccccc2N(C(C)=O)S(=O)(=O)C(F)(F)F)c1C [Compound 1-295]	90	90	90	90	90	90	90	90	40	40	90	90	90	90	90	90
